The numbers were not newly measured in the CATMoS acute toxicity set (Mansouri et al. 2021), which cites them from elsewhere.

Several values for one entry are separate records, joined by “and”; a condition that tells them apart may be missing. Identical values can stand only once.

The series in a line: rat acute oral toxicity. The settings on record: in vivo.
The LD50 is the dose expected to kill half of the subjects tested. For the compound `O=S1OC[C@@H]2[C@H](CO1)[C@]1(Cl)C(Cl)=C(Cl)[C@@]2(Cl)C1(Cl)Cl` (some centres not stated), the 50% lethal dose (LD50) was 76 mg/kg.
`N#CN=c1ccccn1Cc1c(Cl)cccc1Cl`: the LD50 was 500 mg/kg.
For the compound `CN(C)CCCn1c2c(c3ccccc31)CCCCCC2`, the LD50 is 775 mg/kg.
For `NC(Cc1ccc(Oc2ccc(N(CCCl)CCCl)cc2)cc1)C(=O)O` (configuration not stated), the 50% lethal dose (LD50) is 620 mg/kg.
As to `CCOC(C1=NCCCN1)c1ccc(Cl)cc1` (configuration not stated), the LD50 was 875 mg/kg.
As for `CCCCC(CC)COP(OCC(CC)CCCC)OCC(CC)CCCC` (configuration not stated), the LD50 is 6200 mg/kg.
Consider `c1ccc(CNc2ncnc3c2NCN3)cc1`, for which the LD50 is 2100 mg/kg.
Regarding `NC1Cc2ccccc2C1`, the median lethal dose (LD50) is 326 mg/kg.
For `COC(=O)Nc1nc2cc(C(=O)c3ccccc3)ccc2[nH]1`, the LD50 was 714 mg/kg.
Regarding `ClCCO[SiH](OCCCl)OCCCl`, the median lethal dose (LD50) was 190 mg/kg.
Regarding `CC(=O)c1ccc2c(c1)N(CCCN(C)C)c1ccccc1S2`, the LD50 is 400 mg/kg.
Turning to `Nc1nc2cccc(Cl)c2o1`, the LD50 was 410 mg/kg.
In the case of `O=[N+]([O-])c1nccn1CC(O)CO` (configuration not stated), the 50% lethal dose (LD50) is 5080 mg/kg.
For the compound `C=CCI`, the LD50 was 10 mg/kg.
For `Cc1ncc(CNC(=O)N(CCCl)N=O)c(N)n1`, the LD50 was 113 mg/kg.
In the case of `CC(C)CCCC(C)(C)O`, the LD50 was 6800 mg/kg.
As for `COP(=S)(N=C1SCCS1)OC`, the LD50 is 10 mg/kg.
For the compound `C#CC(=O)O`, the LD50 is 100 mg/kg.
With `CCOC(=O)N(c1cccc(C(=O)c2ccccc2)c1)S(=O)(=O)C(F)(F)F`, the median lethal dose (LD50) is 4700 mg/kg.
Consider `CNC(C)C1CCC(N)C(OC2C(N)CC(N)C(OC3OCC(C)(O)C(NC)C3O)C2O)O1` (configuration not stated), for which the LD50 is 6600 mg/kg.
Turning to `COC(=O)N/N=C/c1c[n+]([O-])c2ccccc2[n+]1[O-]`, the LD50 is 850 mg/kg.
For the compound `CCCCCCCCCCCCCCCCCCCCCCO`, the median lethal dose (LD50) is 10000 mg/kg.
Regarding `COc1ccc(OCCCN(C)CCOc2ccc3c(c2)OCO3)c(C2Sc3ccccc3N(C)C2=O)c1` (configuration not stated), the LD50 was 206 mg/kg.
Consider `CCCCNS(=O)(=O)c1ccccc1`, for which the LD50 was 2050 mg/kg.
On to `Nc1ccccc1SCc1ncon1`, for which the LD50 was 79.4 mg/kg and 63 mg/kg.
On to `Nc1ncnc2c1ncn2[C@]1(CO)O[C@H](CO)[C@@H](O)[C@H]1O`, for which the LD50 was 10000 mg/kg.
Consider `CCCCNC`, for which the LD50 is 420 mg/kg.
With `O=C(O)CCCCCCI`, the LD50 is 2240 mg/kg.
In the case of `O=C(O)C(Cl)Cl`, the LD50 was 5280 mg/kg and 2820 mg/kg.
Consider `CC(C)CC(=O)CC1(C)CCC(c2ccoc2)O1` (configuration not stated), for which the LD50 is 350 mg/kg.
On to `CCCCCCCC(C)=O`, for which the LD50 was 3200 mg/kg.
For `FC(F)(F)c1ccc(Cl)cc1`, the LD50 was 13000 mg/kg.
On to `COC(C)CC(OC)OC` (configuration not stated), for which the LD50 is 1480 mg/kg.
With `Clc1ccc2ocnc2c1`, the median lethal dose (LD50) is 650 mg/kg.
`NN1C(=O)CC(c2cccc(Br)c2)C1=O` (configuration not stated): the LD50 is 1600 mg/kg.
As for `CC(=O)c1ccc(O)c(C(N)=O)c1`, the LD50 is 1700 mg/kg.
Regarding `COc1cccc2c1cc([N+](=O)[O-])c1c(C(=O)O)cc3c(c12)OCO3`, the median lethal dose (LD50) is 184 mg/kg.
Take `COP(=S)(OC)Oc1ccc(S(N)(=O)=O)cc1`: the LD50 was 160 mg/kg.
In the case of `ClC(COCC(Cl)C(Cl)(Cl)Cl)C(Cl)(Cl)Cl` (configuration not stated), the LD50 is 3630 mg/kg.
As for `CCC(CC)(C(=O)O)c1cccc2ccccc12`, the LD50 is 1080 mg/kg.
Regarding `CC(O)c1cc(N)cc(C(F)(F)F)c1` (configuration not stated), the LD50 is 880 mg/kg.
On to `O=[N+]([O-])c1ccc(Cl)cc1C(F)(F)F`, for which the LD50 is 554 mg/kg.
`O=[N+]([O-])c1cc([N+](=O)[O-])c(Cl)c(S(=O)(=O)O)c1`: the LD50 is 1460 mg/kg.
For the compound `CC12CCC(=O)CC1CCC1C2CCC2(C)C(C(=O)COC(=O)CCC(=O)O)CCC12` (configuration not stated), the LD50 is 700 mg/kg.
In the case of `Oc1c(Cl)c(Cl)cc(Cl)c1Cc1c(Cl)cc(Cl)c(Cl)c1O`, the LD50 was 100 mg/kg.
Regarding `c1nc(NC2CC2)c2ncn(C3CC3)c2n1`, the LD50 was 130 mg/kg.
`COP(N)(=S)Oc1ccccc1C(=O)OC(C)C` (configuration not stated): the LD50 was 50 mg/kg.
Regarding `CCOC(=O)COc1ccc2c(C)c(CCN(CC)CC)c(=O)oc2c1Cl`, the LD50 is 1250 mg/kg.
For the compound `S=C(NNc1ccccc1)NNc1ccccc1`, the LD50 is 1500 mg/kg.
Consider `COCCN1C(=O)C2C3C=C(C(O)(c4ccccc4)c4ccccn4)C(C3=C(c3ccccc3)c3ccccn3)C2C1=O` (configuration not stated), for which the LD50 is 9 mg/kg.
For `COC1=C(OC)C(=O)C(CCCCCCCCCCO)=C(C)C1=O`, the LD50 was 10000 mg/kg.
Consider `CCOC(=O)C(C)(CC)Oc1ccc(Cc2ccc(Cl)cc2)cc1` (configuration not stated), for which the LD50 is 9000 mg/kg.
In the case of `CCOC(=O)C(N)Cc1ccc(O)cc1` (configuration not stated), the LD50 was 13800 mg/kg.
For `CC(CN)NCCO` (configuration not stated), the median lethal dose (LD50) was 4920 mg/kg.
In the case of `CC(=O)OCCC1CCCCC1`, the LD50 is 3200 mg/kg.
On to `NC(=O)CC[C@H](N)C(=O)O`, for which the LD50 is 7500 mg/kg.
For `CCCCCCCCC[N+]1(C)[C@H]2CC(OC(=O)C(CO)c3ccccc3)C[C@H]1[C@H]1O[C@H]12` (some centres not stated), the 50% lethal dose (LD50) is 1300 mg/kg.
With `COC(=S)SSC(Cl)(Cl)Cl`, the LD50 was 1540 mg/kg.
Regarding `O=[N+]([O-])c1cc([N+](=O)[O-])c2nc(C(F)(F)F)[nH]c2c1`, the LD50 was 11.5 mg/kg.
As for `Cc1cccc(C)c1N`, the LD50 is 2040 mg/kg.
Regarding `O=C(OCCOc1ccc(Cl)cc1Cl)c1ccccc1`, the LD50 is 1700 mg/kg.
Consider `CC(C)N(C)C`, for which the 50% lethal dose (LD50) is 684 mg/kg.
